Data from patent publication US20190100549A1, “FLAVONOIDE-TYPE COMPOUNDS BEARING AN O-RHAMNOSYL RESIDUE” (Universitaet Hamburg, priority 2016, published 2019).
“And” between values parts separate entries of the source, which are not always exact repeats. Equal entries are not always repeated.

Key:
PGE2 = PGE2 release in stimulated NHEK (ELISA); assay type: cell-based, human; settings: PMA 1 μg/ml, 100 μM
Description: (§1) NHEK were pre-incubated for 24 h with the test compounds. The medium was replaced with the NHEK culture medium containing the inflammatory inducers (PMA or Poly I:C) and incubated for another 24 hours. Positive and negative controls ran in parallel. At the endpoint the culture supernatants were quantified of secreted IL-8, PGE2 and TNF-α by means of ELISA.

NF-κB = NF-κB activity in NIH3T3-KBF-Luc cells stimulated with TNFα (luciferase); assay type: cell-based; settings: for % Activation: TNFα alone = 100
Description: NIH3T3-KBF-Luc cells were stably transfected with the KBF-Luc plasmid (Sancho (2003) Mol Pharmacol 63:429-438), which contains three copies of NF-κB binding site (from major histocompatibility complex promoter), fused to a minimal simian virus 40 promoter driving the luciferase gene. Cells (1×10^4 for NIH3T3-KBF-Luc) were seeded the day before the assay on 96-well plate. Then the cells were treated with the test substances for 15 min and then stimulated with 30 ng/ml of TNFα. After 6 h, the cells were washed twice with PBS and lysed in 50 μl lysis buffer containing 25 mM Tris-phosphate (pH 7.8), 8 mM MgCl2, 1 mM DTT, 1% Triton X-100, and 7% glycerol during 15 min at RT in a horizontal shaker. Luciferase activity was measured using a GloMax 96 microplate luminometer (Promega) following the instructions of the luciferase assay kit (Promega, Madison, Wis., USA). […] The experiments for each concentration of the test items were done in triplicate wells.

TNF-α = TNF-α release in stimulated NHEK (ELISA); assay type: cell-based, human; settings: poly(I:C)
Description: as §1

[1] = tested on: hydrogen peroxide (DHR) in NHEK cells; experiment: Protection against UV-induced H2O2 stress in NHEK (DHR probe, flow cytometry); assay type: cell-based, human
Description: Pre-incubated NHEK were incubated with the test compound for 24 h. Then the specific fluorescence probe for the measurement of hydrogen peroxide (DHR) or lipid peroxides (C11-fluor) was added and incubated for 45 min. Irradiation occurred with in H2O2 determination UVB at 180 mJ/cm^2 (+UVA at 2839 mJ/cm^2) or UVB at 240 mJ/cm^2 (+UVA at 3538 mJ/cm^2) in lipid peroxide, respectively, using a SOL500 Sun Simulator lamp. After irradiation the cells were post-incubated for 30 min before flow-cytometry analysis.

VEGF = VEGF release in NHDF (ELISA); assay type: cell-based, human; settings: 100 μM, 72 hours
Description: Tests were performed with normal human dermal fibroblast cultures at the 8th passage. Cells were grown in DMEM supplemented with glutamine at 2 mM, penicillin at 50 U/mL and streptomycin (50 μg/mL) and 10% of fetal calf serum (FCS) at 37° C. in a 5% CO2 atmosphere.
Fibroblasts were cultured for 24 hours before the cells were incubated with the test compounds for further 72 hours. After the incubation the culture supernatants were collected in order to measure the released quantities of procollagen I, VEGF, and fibronectin by means of ELISA. Reference test compounds were vitamin C (procollagen I), PMA (VEGF), and TGF-β (fibronectin).

IL-8 = IL-8 release in stimulated NHEK (ELISA); assay type: cell-based, human; settings: for inhibition at 100 µM: Homo sapiens, NHEK; for Cytokine [pg/mL] IL-8 Mean / IL-8 % stim. control / Cytokine [pg/mL] IL-8: 100 μM; for Cytokine [pg/mL] IL-8: single values
Description: as §1

[2] = tested on: normal human epidermal keratinocytes (NHEK); experiment: Cytotoxicity on NHEK monolayer cultures (MTT reduction assay and morphological observation); assay type: cell-based; settings: for Viability (%): single values, listed as Hes-5-Rha
Description: To determine the cytotoxicity of flavonoid-5-O-α-L-rhamnosides tests were performed versus their aglycon derivatives in cell monolayer cultures. For this purpose concentrations ranging from 1 μM to 250 μM were chosen. The viability of normal human epidermal keratinocytes (NHEK) was twice evaluated by a MTT reduction assay and morphological observation with a microscope. NHEK were grown at 37° C. and 5% CO2 aeration in Keratinocyte-SFM medium supplemented with epidermal growth factor (EGF) at 0.25 ng/mL, pituitary extract (PE) at 25 μg/mL and gentamycin (25 μg/mL) for 24 h and were used at the 3rd passage. For cytotoxicity testing, pre-incubated NHEK were given fresh culture medium containing a specific concentration of test compound and incubated for 24 h. After a medium change at same test concentration cells were incubated a further 24 h until viability was determined. Test results are given in Table B2 and illustrated in FIG. 10.

[3] = 100 μM, 180 mJ/cm^2 UVB (2839 mJ/cm^2 UVA)

COc1ccc(C2CC(=O)c3c(cc(O)cc3O[C@@H]3O[C@@H](C)[C@H](O)[C@@H](O)[C@H]3O)O2)cc1O (stereo partly drawn) [HESR1, Hesperetin-5-O-α-L-rhamnoside]
inhibition at 100 µM (PGE2; Homo sapiens, NHEK): 74% | Cytokine [pg/mL] PGE2 Mean (PGE2): 507 pg/mL | PGE2 % stim. control (PGE2): 32% | Cytokine [pg/mL] PGE2 (PGE2; single values): 582 pg/mL and 431 pg/mL | RLU 1 (NF-κB; 10 μM + 30 ng/ml TNFα): 186120 RLU | RLU 2 (NF-κB; 10 μM + 30 ng/ml TNFα): 181040 RLU | RLU 3 (NF-κB; 10 μM + 30 ng/ml TNFα): 182280 RLU | RLU MEAN (NF-κB; 10 μM + 30 ng/ml TNFα): 183147 RLU | RLU specific (NF-κB; 10 μM + 30 ng/ml TNFα): 145883 RLU | % Activation (NF-κB; 10 μM + 30 ng/ml TNFα): 178.4% | RLU 1 (NF-κB; 25 μM + 30 ng/ml TNFα): 218940 RLU | RLU 2 (NF-κB; 25 μM + 30 ng/ml TNFα): 216580 RLU | RLU 3 (NF-κB; 25 μM + 30 ng/ml TNFα): 213320 RLU | RLU MEAN (NF-κB; 25 μM + 30 ng/ml TNFα): 216280 RLU | RLU specific (NF-κB; 25 μM + 30 ng/ml TNFα): 179017 RLU | % Activation (NF-κB; 25 μM + 30 ng/ml TNFα): 218.9% | inhibition at 100 µM (TNF-α; Homo sapiens, NHEK, read-out: TNFα Inhibition %): 26% | Cytokine [pg/mL] TNFα Mean (TNF-α; 100 μM): 423 pg/mL | TNFα % stim. control (TNF-α; 100 μM): 75% | Cytokine [pg/mL] TNFα (TNF-α; 100 μM, single values): 416 pg/mL and 429 pg/mL | anti-oxidative function on mitochondrially produced hydrogen peroxids species (in words) [1]: anti-oxidative function | H2O2 % irradiated control [1, 3]: 62% | H2O2 (AU) Mean [1, 3]: 1152 AU | H2O2 Protection % [1, 3]: 45% | H2O2 (AU) (DHR GMFI) ([1]; 100 μM, 180 mJ/cm^2 UVB (2839 mJ/cm^2 UVA), single values): 1046 AU and 1258 AU | Mean VEGF (VEGF): 73 pg/mL | VEGF % Control (VEGF): 101% | VEGF % Stimulation (VEGF): 1% | VEGF (VEGF; single values): 70 pg/mL and 76 pg/mL | inhibition at 100 µM (IL-8; PMA): 34% | inhibition at 100 µM (IL-8; poly(I:C)): 24% | Cytokine [pg/mL] IL-8 Mean (IL-8; PMA): 2843 pg/mL | IL-8 % stim. control (IL-8; PMA): 98% | Cytokine [pg/mL] IL-8 (IL-8; PMA): 3242 pg/mL and 2445 pg/mL | Cytokine [pg/mL] IL-8 Mean (IL-8; poly(I:C)): 2793 pg/mL | IL-8 % stim. control (IL-8; poly(I:C)): 76% | Cytokine [pg/mL] IL-8 (IL-8; poly(I:C)): 2617 pg/mL and 2970 pg/mL | Viability (%) Mean ([2]; 1 μM): 97% | Viability (%) ([2]; 1 μM): 86% and 108% | Viability (%) Mean ([2]; 2.5 μM): 100% | Viability (%) ([2]; 2.5 μM): 87% and 113% | Viability (%) Mean ([2]; 5 μM): 88% | Viability (%) ([2]; 5 μM): 81% and 95% | Viability (%) Mean ([2]; 10 μM): 95% | Viability (%) ([2]; 10 μM): 86% and 103% | Viability (%) Mean ([2]; 25 μM): 101% | Viability (%) ([2]; 25 μM): 89% and 112% | Viability (%) Mean ([2]; 50 μM): 87% | Viability (%) ([2]; 50 μM): 81% and 93% | Viability (%) Mean ([2]; 100 μM): 97% | Viability (%) ([2]; 100 μM): 86% and 108% | Viability (%) Mean ([2]; 250 μM): 96% | Viability (%) ([2]; 250 μM): 91% and 102%
